In patent US8394641B2, “Method of hydrolyzing an enzymatic substrate” (Advanced Liquid Logic Inc., priority 2009, dated 2013):

Target: T1, Krabbe assay (Homo sapiens, UniProt P54803)
T1 construct: DBS extracts were prepared from quality control (QC) dried blood spot samples; tissue CDC, Atlanta Ga; host or cells: dried blood spot extracts (pooled cord blood / leukoreduced red cells plus serum)
T1 sequence (P54803 43-685): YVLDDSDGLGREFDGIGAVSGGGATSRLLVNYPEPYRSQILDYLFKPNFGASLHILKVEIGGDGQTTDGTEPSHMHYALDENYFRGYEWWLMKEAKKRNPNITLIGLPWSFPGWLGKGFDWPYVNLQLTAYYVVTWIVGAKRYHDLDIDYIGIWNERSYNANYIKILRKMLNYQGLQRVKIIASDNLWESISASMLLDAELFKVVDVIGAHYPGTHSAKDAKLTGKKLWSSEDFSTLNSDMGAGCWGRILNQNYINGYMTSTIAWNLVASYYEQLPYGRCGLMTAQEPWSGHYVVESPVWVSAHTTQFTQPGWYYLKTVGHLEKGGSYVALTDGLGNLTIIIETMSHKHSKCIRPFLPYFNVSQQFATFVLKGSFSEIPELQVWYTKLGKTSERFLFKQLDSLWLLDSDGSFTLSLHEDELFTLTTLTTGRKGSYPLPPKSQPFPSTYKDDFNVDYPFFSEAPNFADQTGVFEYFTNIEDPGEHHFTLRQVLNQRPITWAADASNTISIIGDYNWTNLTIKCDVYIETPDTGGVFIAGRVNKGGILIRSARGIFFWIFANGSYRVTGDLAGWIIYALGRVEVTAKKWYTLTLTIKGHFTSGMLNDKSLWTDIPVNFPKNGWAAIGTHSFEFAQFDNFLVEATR
Assay: Krabbe assay on bench, substrate hydrolysis with cyclodextrins, QC DBS extracts
Format: biochemical
Conditions: data not shown
Description: To evaluate the efficacy of cyclodextrins in enhancing the hydrolysis of enzymatic substrates (4-MU substrates) used in NBS assays, DBS extracts were prepared from quality control (QC) dried blood spot samples (i.e., base pool (BP), low (L), medium (M) and high (H) activity samples). The QC samples were obtained from CDC, Atlanta Ga. The base pool (BP) QC sample was prepared from a pool of leukoreduced human red blood cells that was adjusted with serum to a hematocrit of 50%. The High (H) activity QC sample was prepared from pooled cord blood that was adjusted with serum to a hematocrit of 50%. The medium (M) activity QC sample was prepared by using 50% base pool (BP) and 50% high (H) activity sample. The low (L) activity QC sample was prepared by using 95% base pool (BP) and 5% high (H) activity sample. The BP sample is used as a control for hydrolysis non-specific to white blood cell lysosomal enzymes. The DBS extracts were analyzed using on-bench assay protocols for Fabry, Gaucher, Krabbe, and Pompe diseases. For each assay, on-chip reagent formulations were scaled up to bench volumes. Hydroxypropyl-β-cyclodextrin or methyl-β-cyclodextrin reagent stocks (300 mM) were prepared in appropriate assay buffers. […] Fluorescence was read at 360/460 nm at a gain of 75. For each assay, QC samples (BP, L, M and H) were analyzed in duplicate. […]

## hydroxypropyl-β-cyclodextrin
  effect on substrate hydrolysis in a Krabbe assay: inhibitory

## methyl-β-cyclodextrin
  effect on substrate hydrolysis in a Krabbe assay: inhibitory
